From publication PMC11637483, “Dissecting caspase-2-mediated cell death: from intrinsic PIDDosome activation to chemical modulation” (Protein & Cell, 2024)
Where two headings read alike, the source gives them in different places.

Assays:
[1] = test system: caspase-2-expressing HeLa cells with BID, RAIDD or PIDD1 knockout; test: Compound-induced caspase-2 activation and cell death in pathway-gene knockout HeLa cells; type: cell-based, human
Description: Figure 3. Chemical screen identifies HUHS015 as an agonist of human caspase-2. (A) Screen raw data and selectivity analyses of the compound plate containing HUHS015. The ATP-based viability data of both HeLa-CASP2^−/−CASP3^−/−GSDMD^−/− (TKO) (control group) and TKO cells with exogenous caspase-2 expression (experimental group) are shown. The ratios of the cell viability between the two groups are calculated with 3 as a cutoff for positive compound hit selection. (B) HUHS015-induced cell death depends on caspase-2 activity. HeLa TKO cells expressing WT or enzymatically deficient C320A mutant of caspase-2 were treated with HUHS015. ATP-based cell viability and immunoblotting of caspase-2 cleavage are shown. (C and F) The structures and potencies of HUHS15 (C) and its optimized derivative HUHS15-036 (F). HeLa TKO cells with exogenous caspase-2 expression were treated with titrated compounds. The ATP-based viability data were plotted with compound concentration for EC50 calculation. (D) BID is required for HUHS15-induced caspase-2-dependent cell death. WT and BID^−/− (KO) HeLa TKO cells with exogenous caspase-2 expression, as well as the knockout cells rescued with WT or D60E mutant of BID were treated with HUHS15. ATP-based cell viability and immunoblotting detecting caspase-2 and BID processing are shown. (E) HUHS15-induced caspase-3/7 activation relies on caspase-9 but is independent of PIDDosome. CASP2^−/− (KO) HeLa cells with exogenous caspase-2 expression in the indicated knockout background were treated with HUHS15. Processing of caspase-2, -3, and -7 was analyzed by immunoblotting. (G) Top gRNA hits from the genetic screen of HUHS015-36-induced apoptosis in HeLa TKO cells with exogenous caspase-2 expression. In all the data, indicated cells were treated with the compound for 5 h (for HUHS015-36) or 9 h (for HUHS015) before cell viability measurement and immunoblotting analyses. ATP-based cell viability in panels (B and D) is expressed as mean ± s.d. from three technical replicates. Data in panels (B–F) are representative of three independent experiments. […]

[2] = test system: HeLa-CASP2/CASP3/GSDMD TKO + CASP2 cells (human caspase-2); test: ATP-based cell viability (CellTiter-Glo) in HeLa TKO cells with exogenous caspase-2 expression; details: for EC50: Homo sapiens, HeLa, ATP-based viability, HeLa TKO cells with exogenous caspase-2, titrated compound
Excerpt: Specific chemical compounds are powerful tools for dissecting target-related signaling mechanisms in biological contexts ([Beck et al., 2022]; [Zhang et al., 2012]). Prompted by this notion and possibly to identify a compound that could activate the PIDDosome, we designed a cell death-based high-throughput chemical screen in HeLa cells, in which a triple knockout of CASP2, CASP3, and GSDMD were constructed. CASP3 and GSDMD deficiency served as the background to minimize compound-induced nonspecific cytotoxicity and undesired pyroptosis. Using the triple knockout cells as the control, additional expression of exogenous caspase-2 allows the identification of compounds that can specifically activate the caspase-2-BID pathway and trigger apoptosis through caspase-7. […] In accordance with the apoptosis induction, HUHS015 induced evident processing of caspase-2 expressed in the triple-knockout cells (Fig. 3B). This indicated activation of caspase-2 as the protease-deficient C320A mutant of caspase-2 was not processed upon HUHS015 treatment (Fig. 3B). Accordingly, expression of caspase-2 C320A rendered no cell death in response to HUHS015 treatment (Fig. 3B).
Figure 3. Chemical screen identifies HUHS015 as an agonist of human caspase-2. (A) Screen raw data and selectivity analyses of the compound plate containing HUHS015. The ATP-based viability data of both HeLa-CASP2^−/−CASP3^−/−GSDMD^−/− (TKO) (control group) and TKO cells with exogenous caspase-2 expression (experimental group) are shown. The ratios of the cell viability between the two groups are calculated with 3 as a cutoff for positive compound hit selection. (B) HUHS015-induced cell death depends on caspase-2 activity. HeLa TKO cells expressing WT or enzymatically deficient C320A mutant of caspase-2 were treated with HUHS015. ATP-based cell viability and immunoblotting of caspase-2 cleavage are shown. (C and F) The structures and potencies of HUHS15 (C) and its optimized derivative HUHS15-036 (F). HeLa TKO cells with exogenous caspase-2 expression were treated with titrated compounds. The ATP-based viability data were plotted with compound concentration for EC50 calculation. (D) BID is required for HUHS15-induced caspase-2-dependent cell death. […] Processing of caspase-2, -3, and -7 was analyzed by immunoblotting. […] ATP-based cell viability in panels (B and D) is expressed as mean ± s.d. from three technical replicates. […]
Cell viability was measured by the ATP assay using the CellTiter-Glo® Luminescent Cell Viability Assay kit (Promega).
Drug-related Screening Library (25 × 384-well plate, more than 7,000 compounds) was used for the chemical screen in the TKO HeLa cells rescued with exogenous caspase-2 expression. […] After treatment for 12 h, the cell viability was measured by the ATP assay. […]

With `Cc1ccc2nc(-n3nc(C)c(Cc4ccccc4)c3O)[nH]c2c1` [HUHS015] the cell death ([1]; BID knockout) was “diminished”, the “caspase-2 processing and caspase-3/7 activation” value ([1]; RAIDD knockout) was “could still induce caspase-2 processing as well as caspase-3/7 activation” and the EC50 ([2]; read-out: EC50 (half-maximal effective concentration), caspase-2-mediated cell death) was ~6.8 µM.

For `Cc1cccc2nc(-n3nc4c(c3O)CCCC4)[nH]c12` [HUHS015-36], the “caspase-2 activation and cell death” value ([1]; PIDD1 or RAIDD knockout, 5 h) was “neither PIDD1 nor RAIDD deficiency had any effects”, the EC50 ([2]; read-out: EC50, caspase-2-mediated cell death) was 0.06 µM and the “treated cells that underwent apoptosis” value ([2]; pool of CRISPR-Cas9 mutagenized caspase-2-expressing TKO HeLa cells, genetic screen) was “Over 95%”.
